In ChEMBL document CHEMBL1201862, “PubChem BioAssay data set” (2004):
Calls of active or inactive are those of the source.

Key:
Prothrombin = Prothrombin (Homo sapiens, UniProt P00734); assay: Thrombin 1536 HTS Dose Response Confirmation. [Related pubchem assays: 1046 (Thrombin 1536 HTS; hits were confirmed in this assay)]; type: functional
[1] = target: Fructose-bisphosphate aldolase (Mycobacterium tuberculosis, UniProt P9WQA3); assay: Fluorescence-based biochemical high throughput dose response assay for inhibitors of the fructose-bisphosphate aldolase (FBA) of M. tuberculosis.; type: functional
Chain of Fructose-bisphosphate aldolase (P9WQA3 whole entry): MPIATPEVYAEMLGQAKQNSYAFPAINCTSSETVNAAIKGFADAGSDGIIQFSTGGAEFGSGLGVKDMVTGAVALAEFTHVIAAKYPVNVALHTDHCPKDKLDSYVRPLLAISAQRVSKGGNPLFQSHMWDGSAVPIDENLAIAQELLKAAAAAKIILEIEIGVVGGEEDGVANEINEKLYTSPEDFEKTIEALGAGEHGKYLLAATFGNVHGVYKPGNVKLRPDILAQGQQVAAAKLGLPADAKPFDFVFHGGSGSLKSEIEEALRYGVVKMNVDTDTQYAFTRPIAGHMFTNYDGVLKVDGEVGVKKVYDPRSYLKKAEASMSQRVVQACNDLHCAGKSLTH

[2] = target: T1, Polyadenylate-binding protein 1 (Homo sapiens, UniProt P11940); assay: MLLE binding blockers, Cy5 peptide tracer – biochemical, fluorescence polarization, Cy5-PAM2 peptide, secondary, miRNA deadenylation inhibitor project, dose response (AID 602260); type: functional; settings: read-out: IC50_Mean
T1 sequence (P11940 whole entry): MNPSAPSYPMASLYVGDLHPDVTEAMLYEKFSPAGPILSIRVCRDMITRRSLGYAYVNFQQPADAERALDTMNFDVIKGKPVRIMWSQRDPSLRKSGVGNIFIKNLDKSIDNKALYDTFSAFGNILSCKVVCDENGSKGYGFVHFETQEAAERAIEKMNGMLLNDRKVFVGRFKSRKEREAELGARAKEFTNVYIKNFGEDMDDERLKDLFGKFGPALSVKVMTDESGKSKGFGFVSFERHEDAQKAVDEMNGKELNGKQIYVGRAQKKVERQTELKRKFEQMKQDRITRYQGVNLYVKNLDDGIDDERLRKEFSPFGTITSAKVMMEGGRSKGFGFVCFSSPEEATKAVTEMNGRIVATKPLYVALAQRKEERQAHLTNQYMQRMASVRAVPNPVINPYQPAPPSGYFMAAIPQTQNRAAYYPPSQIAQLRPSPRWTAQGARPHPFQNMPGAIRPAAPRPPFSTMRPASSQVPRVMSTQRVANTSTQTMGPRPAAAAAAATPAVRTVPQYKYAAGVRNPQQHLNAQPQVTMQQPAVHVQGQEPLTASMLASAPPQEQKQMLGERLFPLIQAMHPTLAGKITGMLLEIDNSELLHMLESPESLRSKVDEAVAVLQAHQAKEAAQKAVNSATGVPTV

[3] = A cytotoxicity screen of small molecule inhibitors of the PhoP region in Salmonella typhi identified in the primary screen. [Related pubchem assays: 1850, 1864, 1985 ]; type: functional
[4] = target: T1, Polyadenylate-binding protein 1; assay: MLLE domain peptide-binding blockers, IC50 – biochemical, fluorescence polarization, FITC-PAM2 peptide, dose response (AID 602259); type: functional; settings: read-out: IC50_Mean
[5] = viability loss in HEK293T cells – cell-based, cherry-picks, cytotoxicity control for HIV Vif inhibitor project, dose response (AID 652208); type: functional
[6] = non-specific 3'UTR reporter inhibition in Clone20-Shn3RL – cell-based, Renilla luciferase, cherry-picked, counter-screen for Shn3 inhibitor project, dose response (AID 624133); type: functional
Nonstructural protein 1 = Nonstructural protein 1 (Influenza A virus, UniProt Q194T2); type: functional, Influenza A virus (A/California/07/2009(H1N1))
Chain of Nonstructural protein 1 (Q194T2 whole entry): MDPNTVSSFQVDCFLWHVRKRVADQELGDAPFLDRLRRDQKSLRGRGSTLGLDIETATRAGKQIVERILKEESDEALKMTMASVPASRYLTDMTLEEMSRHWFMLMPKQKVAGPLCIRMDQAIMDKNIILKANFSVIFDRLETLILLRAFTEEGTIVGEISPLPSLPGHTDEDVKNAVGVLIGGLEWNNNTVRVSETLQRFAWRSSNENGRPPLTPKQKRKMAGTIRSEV

INS1 = assay: INS-1E survival protection against cytokine death – cell-based, luminescence, retest, dose response (AID 449756); type: functional; settings: Rattus norvegicus;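 further: cell death triggered by IL-1 beta plus TNF-alpha plus IFN-gamma mixture; protective hits raise ATP signal compared with cytokine alone wells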
[7] = reduction of Shn3 3'UTR-driven luciferase in osteoblasts – cell-based, Clone20 osteoblasts, firefly luciferase, cherry-picked, dose response (AID 624132); type: functional;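 further: firefly luciferase luminescence from reporter carrying the Shn3 3'UTR in osteoblasts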
[8] = loss of viability in HepG2 cells – cell-based, CellTiter-Glo, cherry-picked, cytotoxicity control for Shn3 inhibitor project, dose response (AID 624134); type: functional
[9] = Trypanosoma cruzi growth suppression in host cells – NIH3T3 host cells, beta-gal luminescence, confirmation (AID 2044); type: functional, cell-based;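 further: intracellular parasites grown in NIH/3T3 mouse fibroblasts as host cells; luminescent beta-galactosidase reporter signal from transgenic T. cruzi replicating inside host cells; inhibitors lower the luminescence signal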
[10] = NIH3T3 cell viability loss – ATP luminescence, mouse fibroblasts, counter-screen, dose response (AID 2010); type: functional, cell-based;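 further: cells exposed to compound for about 90 hours before reading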
Protein S100-A4 = Protein S100-A4 (Homo sapiens, UniProt P26447); assay: human S100A4 peptide interaction inhibition curves – biochemical, fluorescence polarization, cherry-picked hits, dose response (AID 687001); type: functional
Chain of Protein S100-A4 (P26447 whole entry): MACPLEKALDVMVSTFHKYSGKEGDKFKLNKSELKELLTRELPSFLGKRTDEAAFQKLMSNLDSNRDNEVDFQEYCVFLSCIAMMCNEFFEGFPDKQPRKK

[11] = target: Long-chain-fatty-acid--AMP ligase FadD28 (Mycobacterium tuberculosis, UniProt P9WQ59); assay: Fluorescence polarization aasay to screen for inhibitors that compete for the binding of FadD28 to a bisubstrate Measured in Biochemical System Using Plate Reader - 2147-01_Inhibitor_Dose_CherryPick_Activity.; type: functional, Mycobacterium tuberculosis H37Rv
[12] = target: ADP-ribosylation factor GTPase-activating protein 1 (Rattus norvegicus, UniProt Q62848); assay: Fluorescence polarization-based biochemical high throughput dose response screening assay to identify inhibitors of ADP-ribosylation factor GTPase activating protein 1 (ARFGAP1).; type: functional
Chain of ADP-ribosylation factor GTPase-activating protein 1 (Q62848 whole entry, the tested form may be a part): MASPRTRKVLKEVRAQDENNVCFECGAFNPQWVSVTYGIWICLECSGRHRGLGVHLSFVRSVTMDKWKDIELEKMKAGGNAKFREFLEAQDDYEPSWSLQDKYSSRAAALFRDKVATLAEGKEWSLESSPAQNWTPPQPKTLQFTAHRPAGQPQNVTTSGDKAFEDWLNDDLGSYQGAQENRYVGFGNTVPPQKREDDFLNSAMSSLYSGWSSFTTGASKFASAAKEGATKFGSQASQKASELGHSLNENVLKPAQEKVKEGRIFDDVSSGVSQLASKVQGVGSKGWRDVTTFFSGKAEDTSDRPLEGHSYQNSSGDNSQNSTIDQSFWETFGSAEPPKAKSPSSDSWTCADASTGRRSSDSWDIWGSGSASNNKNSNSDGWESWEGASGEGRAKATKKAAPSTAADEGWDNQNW

[13] = target: T2, Sentrin-specific protease 1 (Homo sapiens, UniProt Q9P0U3); assay: Dose response confirmation of small molecule inhibitors of the catalytic domain of the SUMO protease, SENP1 in a FRET assay.; type: functional; settings: read-out: IC50_Mean
T2 sequence (Q9P0U3 whole entry, the tested form may be a part): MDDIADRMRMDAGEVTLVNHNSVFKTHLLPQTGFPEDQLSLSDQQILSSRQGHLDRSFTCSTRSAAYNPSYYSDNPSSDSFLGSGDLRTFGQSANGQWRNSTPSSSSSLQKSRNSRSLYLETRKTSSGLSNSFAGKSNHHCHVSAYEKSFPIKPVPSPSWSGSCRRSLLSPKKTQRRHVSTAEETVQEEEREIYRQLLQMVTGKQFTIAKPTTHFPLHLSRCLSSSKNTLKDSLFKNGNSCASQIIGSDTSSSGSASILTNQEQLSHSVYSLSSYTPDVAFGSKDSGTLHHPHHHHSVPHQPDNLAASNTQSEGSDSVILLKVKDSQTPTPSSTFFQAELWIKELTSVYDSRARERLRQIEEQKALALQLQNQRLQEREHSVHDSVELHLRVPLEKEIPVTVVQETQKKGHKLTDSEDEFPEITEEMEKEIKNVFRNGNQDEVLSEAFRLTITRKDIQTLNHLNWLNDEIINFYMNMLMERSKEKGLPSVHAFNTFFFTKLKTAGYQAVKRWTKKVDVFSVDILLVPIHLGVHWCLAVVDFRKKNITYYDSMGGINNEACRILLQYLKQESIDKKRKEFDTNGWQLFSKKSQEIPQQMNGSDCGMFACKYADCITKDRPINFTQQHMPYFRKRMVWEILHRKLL

[14] = target: T2, Sentrin-specific protease 1; assay: SENP1 catalytic domain blockers, concentration series – biochemical, kinetic FRET, dose response (AID 651697); type: functional; settings: read-out: IC50_Mean
[15] = fluconazole-exposed Candida albicans growth modulators – fluorescence, retest, confirmation (AID 2467); type: functional, cell-based
[16] = target: T3, Rac GTPase-activating protein 1 (Homo sapiens, UniProt Q9H0H5); assay: blockers of MgcRacGAP-driven Rac1 GTP hydrolysis – biochemical, ADP Hunter fluorescence, primary and confirmatory, confirmation (AID 624330); type: functional
T3 sequence (Q9H0H5 whole entry): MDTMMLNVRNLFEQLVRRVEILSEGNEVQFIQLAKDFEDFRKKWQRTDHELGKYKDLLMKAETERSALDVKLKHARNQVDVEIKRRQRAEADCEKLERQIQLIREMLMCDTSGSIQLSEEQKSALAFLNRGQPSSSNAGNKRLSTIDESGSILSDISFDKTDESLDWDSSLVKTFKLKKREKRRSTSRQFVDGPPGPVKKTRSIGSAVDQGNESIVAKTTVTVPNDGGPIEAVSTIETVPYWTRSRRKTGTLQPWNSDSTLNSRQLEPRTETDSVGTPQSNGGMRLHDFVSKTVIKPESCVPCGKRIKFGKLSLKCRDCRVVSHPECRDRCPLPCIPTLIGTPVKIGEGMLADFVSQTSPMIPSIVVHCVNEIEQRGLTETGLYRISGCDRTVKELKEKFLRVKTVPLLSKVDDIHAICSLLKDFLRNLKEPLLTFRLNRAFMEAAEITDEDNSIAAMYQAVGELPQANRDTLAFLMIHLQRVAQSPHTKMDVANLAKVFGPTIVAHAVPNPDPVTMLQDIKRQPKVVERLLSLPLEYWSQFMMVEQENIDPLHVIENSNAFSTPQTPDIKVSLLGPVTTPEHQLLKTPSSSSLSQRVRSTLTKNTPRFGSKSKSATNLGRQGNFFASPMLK

[17] = viability loss in HeLa cells – cytotoxicity control for MgcRacGAP inhibitor project, dose response (AID 624300); type: functional
[18] = NIH-3T3 fibroblast cytotoxicity, dose response, cytotoxicity control, cell-based, fluorescence, Alamar Blue, secondary assay (AID 2327); type: functional;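 further: NIH-3T3 mouse fibroblasts cultured with fluconazole at 8 µg/mL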
[19] = target: SWI/SNF-related matrix-associated actin-dependent regulator of chromatin subfamily A member 2 (Homo sapiens, UniProt P51531); assay: Luminescence-based cell-based high throughput dose response assay to identify activators of the function of SWI/SNF related, matrix associated, actin dependent regulator of chromatin, subfamily a, member 2 (SMARCA2, BRM).; type: functional
Chain of SWI/SNF-related matrix-associated actin-dependent regulator of chromatin subfamily A member 2 (P51531 whole entry): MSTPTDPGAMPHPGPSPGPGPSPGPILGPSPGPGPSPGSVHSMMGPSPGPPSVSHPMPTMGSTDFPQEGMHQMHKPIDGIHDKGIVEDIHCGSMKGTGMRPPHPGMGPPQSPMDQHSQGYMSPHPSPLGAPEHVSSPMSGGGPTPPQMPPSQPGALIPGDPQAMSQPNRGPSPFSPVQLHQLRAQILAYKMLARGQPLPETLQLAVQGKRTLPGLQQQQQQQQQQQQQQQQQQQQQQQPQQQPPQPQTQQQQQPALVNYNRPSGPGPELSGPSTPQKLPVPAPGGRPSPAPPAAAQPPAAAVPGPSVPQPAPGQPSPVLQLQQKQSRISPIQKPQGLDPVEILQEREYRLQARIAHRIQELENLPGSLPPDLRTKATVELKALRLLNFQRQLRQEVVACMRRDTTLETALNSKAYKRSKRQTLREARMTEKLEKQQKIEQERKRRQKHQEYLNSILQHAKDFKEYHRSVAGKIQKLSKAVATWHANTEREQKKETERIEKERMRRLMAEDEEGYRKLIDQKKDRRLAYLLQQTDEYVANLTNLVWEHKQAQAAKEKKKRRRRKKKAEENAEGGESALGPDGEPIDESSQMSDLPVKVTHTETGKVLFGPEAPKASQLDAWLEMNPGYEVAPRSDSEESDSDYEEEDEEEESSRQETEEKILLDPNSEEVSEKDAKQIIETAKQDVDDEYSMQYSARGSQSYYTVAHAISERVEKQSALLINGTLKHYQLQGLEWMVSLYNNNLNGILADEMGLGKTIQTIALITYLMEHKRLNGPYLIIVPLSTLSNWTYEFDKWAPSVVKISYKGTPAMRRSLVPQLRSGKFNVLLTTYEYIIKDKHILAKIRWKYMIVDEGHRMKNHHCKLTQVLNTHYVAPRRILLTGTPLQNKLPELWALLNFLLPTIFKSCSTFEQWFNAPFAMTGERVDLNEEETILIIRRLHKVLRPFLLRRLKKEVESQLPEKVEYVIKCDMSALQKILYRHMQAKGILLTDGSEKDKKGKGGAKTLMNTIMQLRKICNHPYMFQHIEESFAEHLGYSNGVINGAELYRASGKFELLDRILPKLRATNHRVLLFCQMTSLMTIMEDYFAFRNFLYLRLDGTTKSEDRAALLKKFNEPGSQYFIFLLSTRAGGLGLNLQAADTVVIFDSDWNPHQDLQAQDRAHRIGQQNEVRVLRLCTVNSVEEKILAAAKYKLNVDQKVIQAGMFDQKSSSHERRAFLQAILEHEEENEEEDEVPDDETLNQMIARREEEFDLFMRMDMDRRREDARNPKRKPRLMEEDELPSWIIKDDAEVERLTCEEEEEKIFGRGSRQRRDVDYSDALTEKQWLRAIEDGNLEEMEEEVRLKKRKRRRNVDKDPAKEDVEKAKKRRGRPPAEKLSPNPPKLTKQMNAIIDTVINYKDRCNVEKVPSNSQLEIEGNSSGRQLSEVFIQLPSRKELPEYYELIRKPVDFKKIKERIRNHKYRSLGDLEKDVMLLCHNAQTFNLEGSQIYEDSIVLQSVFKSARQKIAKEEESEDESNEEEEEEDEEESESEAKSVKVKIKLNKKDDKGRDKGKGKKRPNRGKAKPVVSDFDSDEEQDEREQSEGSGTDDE

[20] = Counterscreen for activators of the function of SWI/SNF related, matrix associated, actin dependent regulator of chromatin, subfamily a, member 2 (SMARCA2, BRM): Luminescence-based cell-based high throughput dose response assay to identify non-selective compounds using the VP16 reporter assay.; type: functional
Albumin = Albumin (Bos taurus, UniProt P02769); assay: Counterscreen for inhibitors of T-cell receptor (TCR)-CD3 interaction: Fluorescence-based biochemical high throughput dose response assay to identify inhibitors of T-cell receptor (TCR)-CD3 interaction using a TAMRA-labeled BSA probe.; type: functional
Chain of Albumin (P02769 whole entry): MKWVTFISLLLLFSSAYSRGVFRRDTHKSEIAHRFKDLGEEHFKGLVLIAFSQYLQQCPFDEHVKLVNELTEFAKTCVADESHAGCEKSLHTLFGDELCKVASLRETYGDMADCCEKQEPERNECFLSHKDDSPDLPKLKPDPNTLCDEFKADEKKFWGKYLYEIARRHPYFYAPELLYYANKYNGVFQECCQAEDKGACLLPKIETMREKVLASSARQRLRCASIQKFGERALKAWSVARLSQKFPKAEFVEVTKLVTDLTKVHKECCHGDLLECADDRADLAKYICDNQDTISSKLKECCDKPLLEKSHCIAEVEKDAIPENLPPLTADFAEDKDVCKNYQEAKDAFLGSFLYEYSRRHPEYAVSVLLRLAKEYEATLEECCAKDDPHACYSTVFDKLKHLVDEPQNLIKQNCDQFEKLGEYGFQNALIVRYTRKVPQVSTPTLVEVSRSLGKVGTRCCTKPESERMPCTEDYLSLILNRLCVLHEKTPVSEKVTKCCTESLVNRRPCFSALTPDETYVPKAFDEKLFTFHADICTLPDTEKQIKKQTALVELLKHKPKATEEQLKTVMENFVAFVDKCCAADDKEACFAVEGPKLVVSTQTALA

[21] = target: T4, Low molecular weight phosphotyrosine protein phosphatase (Homo sapiens, UniProt P24666); type: functional; settings: read-out: IC50_Mean
T4 sequence (P24666 whole entry): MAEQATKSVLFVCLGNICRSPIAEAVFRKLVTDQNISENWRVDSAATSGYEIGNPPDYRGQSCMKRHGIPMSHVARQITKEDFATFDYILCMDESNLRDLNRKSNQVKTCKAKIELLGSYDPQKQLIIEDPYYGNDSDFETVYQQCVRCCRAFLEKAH

[22] = target: T4, Low molecular weight phosphotyrosine protein phosphatase; type: functional; settings: read-out: IC50_Mean; remark: listed apart in the source
[23] = target: T5, Tyrosine-protein phosphatase non-receptor type 22 (Homo sapiens, UniProt Q9Y2R2); assay: PTPN22 enzyme inhibitors – biochemical, fluorescence, LYP catalytic domain, selectivity assay for LMPTP inhibitor project, dose response (AID 652006); type: functional; settings: read-out: IC50_Mean
T5 sequence (Q9Y2R2 whole entry): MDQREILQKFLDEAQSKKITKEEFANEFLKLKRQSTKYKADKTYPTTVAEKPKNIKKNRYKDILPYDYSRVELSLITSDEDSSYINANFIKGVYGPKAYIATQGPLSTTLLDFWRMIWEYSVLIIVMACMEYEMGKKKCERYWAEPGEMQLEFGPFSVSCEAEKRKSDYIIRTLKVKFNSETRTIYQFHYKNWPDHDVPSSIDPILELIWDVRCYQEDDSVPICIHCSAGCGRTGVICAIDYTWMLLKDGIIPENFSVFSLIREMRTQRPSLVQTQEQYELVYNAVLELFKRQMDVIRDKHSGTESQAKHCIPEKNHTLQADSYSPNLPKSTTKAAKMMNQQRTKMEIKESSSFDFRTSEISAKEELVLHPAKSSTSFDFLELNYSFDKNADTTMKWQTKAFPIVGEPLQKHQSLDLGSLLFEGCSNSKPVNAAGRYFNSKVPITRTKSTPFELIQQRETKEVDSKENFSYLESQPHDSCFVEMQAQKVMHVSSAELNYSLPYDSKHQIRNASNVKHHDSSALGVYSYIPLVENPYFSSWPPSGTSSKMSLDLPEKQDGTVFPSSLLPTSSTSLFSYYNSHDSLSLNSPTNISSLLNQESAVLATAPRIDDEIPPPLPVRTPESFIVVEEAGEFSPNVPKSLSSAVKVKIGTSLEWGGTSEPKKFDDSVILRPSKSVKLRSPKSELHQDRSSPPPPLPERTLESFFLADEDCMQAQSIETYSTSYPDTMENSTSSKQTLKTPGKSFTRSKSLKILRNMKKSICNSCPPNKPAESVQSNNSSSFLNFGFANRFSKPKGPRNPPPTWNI

cells [24] = type: functional, cell-based
cells [25] = type: functional, cell-based; remark: listed apart in the source
[26] = target: T6, Trace amine-associated receptor 1 (Homo sapiens, UniProt Q96RJ0); assay: Fluorescence-based cell-based high throughput dose response assay to identify agonists of the human trace amine associated receptor 1 (TAAR1).; type: functional
T6 sequence (Q96RJ0 whole entry): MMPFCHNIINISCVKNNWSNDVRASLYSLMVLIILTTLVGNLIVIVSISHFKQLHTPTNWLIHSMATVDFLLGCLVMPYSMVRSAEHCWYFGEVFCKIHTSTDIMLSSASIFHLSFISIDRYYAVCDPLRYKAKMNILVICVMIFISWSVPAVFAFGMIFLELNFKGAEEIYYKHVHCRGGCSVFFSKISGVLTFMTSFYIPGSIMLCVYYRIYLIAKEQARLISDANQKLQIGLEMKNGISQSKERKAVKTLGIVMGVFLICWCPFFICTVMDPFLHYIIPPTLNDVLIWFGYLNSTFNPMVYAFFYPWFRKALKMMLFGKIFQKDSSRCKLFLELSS

[27] = target: T6, Trace amine-associated receptor 1; assay: Counterscreen for agonists of the human trace amine associated receptor 1 (hTAAR1): Fluorescence-based cell-based high throughput dose response assay to identify hTAAR1 agonist that also desensitize TAAR1 receptor response.; type: functional
Vero = assay: viability loss in Vero cells – cell-based, plate reader, cherry-pick samples, cytotoxicity control, dose response (AID 687020); type: functional; settings: Chlorocebus sabaeus
[28] = target: Protein disulfide-isomerase (Homo sapiens, UniProt P07237); assay: inhibition of PDI-mediated insulin reduction – biochemical, turbidity, dry powder samples, set 2, confirmation (AID 652146)
[29] = general mammalian cell viability loss – inhibitor set, cherry-pick, set 2, cytotoxicity control for miR-122 modulator project, dose response (AID 720697); type: functional, cell-based
[30] = inhibition of bursicon-driven LGR2 cAMP signaling – cell-based, HEK293, CRE-luciferase reporter, cherry pick, dose response (AID 743342); type: functional
[31] = MITF: Counter assay: A375 proliferation Measured in Cell-Based System Using Plate Reader - 2084-03_Inhibitor_Dose_DryPowder_Activity_Set8.; type: functional; settings: A-375
[32] = MITF Orthogonal Assay: SK-MEL-5 CTG Assay Measured in Cell-Based System Using Plate Reader - 2084-02_Inhibitor_Dose_DryPowder_Activity_Set7.; type: functional
[33] = rescue of ΔF508 CFTR function, airway epithelium – human bronchial epithelial cells, plate reader, cherry-pick, two tests, dose response (AID 743267); type: functional, cell-based

O=C(CSc1nc2ccccc2o1)c1cc2ccccc2oc1=O
IC50 (Prothrombin): > 50 µM (inconclusive) | IC50 [1]: > 10 µM (inactive) | IC50 [2]: > 66 µM (inactive) | EC50 [3]: > 50 µM (active) | IC50 [4]: > 66 µM (inactive)

COC(=O)c1ccc(NCc2cc(O)ccc2O)cc1O
AC50 [5]: 26.3 µM (active)

CN1/C(=C\C=C2/SC(=S)NC2=O)C(C)(C)c2ccccc21
AC50 [6]: 1.42 µM (active) | IC50 (Nonstructural protein 1): 38.8 µM (active) | AC50 (INS1): 2.87 µM (active) | AC50 [7]: 2.6 µM (active) | AC50 [8]: 38.6 µM (active) | EC50 [9]: 0.981 µM (active) | EC50 [10]: 7.49 µM (active) | AC50 (Protein S100-A4): 0.819 µM (active)

CCc1cccc2c(C(=O)CSc3nncn3-c3ccc(OC)cc3)c[nH]c12
AC50 [11]: > 100 µM (inactive)

Cc1ccc2nc3c(O)n(CC(=O)Nc4ccccc4N4CCN(C)CC4)ncc-3c2c1
IC50 [12]: 74 µM (inactive)

Cc1ccc(-n2cc(-c3ccc([N+](=O)[O-])cc3)[nH]c2=S)c(C)c1
IC50 [13]: 17.2 µM (active) | IC50 [14]: 54.1 µM (inactive)

COc1cc(/C=C(\C#N)c2nc3ccccc3[nH]2)ccc1O
EC50 [15]: 1.41 µM (active) | IC50 [16]: 15.9 µM (active) | CC50 [17]: 99.9 µM (active) | EC50 [18]: 49.9 µM (active)

Nc1ccc2c(c1)C(=O)c1cc(N)c(Cl)cc1-2
EC50 [19]: > 91.2 µM (inactive) | IC50 [16]: 22.1 µM (active) | EC50 [20]: > 91.2 µM (inactive)

O=C1C(=Cc2cn(-c3ccccc3)nc2-c2ccc(OCc3ccccc3)cc2)SC(=S)N1CCS(=O)(=O)O
IC50 (Albumin): > 94.2 µM (inactive) | IC50 [21]: 7.75 µM (active) | IC50 [22]: 7.03 µM (active) | IC50 [23]: 16.1 µM (active)

CC(C)[C@H](NC(=O)c1ccccc1)C(=O)N1CCC[C@H]1C(=O)NCCc1ccccc1Cl
IC50 (cells [24]): > 29.9 µM (inactive) | EC50 (cells [25]): > 29.9 µM (inactive) | EC50 [26]: 0.754 µM (active) | IC50 [27]: 1.2 µM (active)

O=C(NCCN1CCCC1)[C@H]1N[C@H]2c3ccc(-c4ccccc4)c(=O)n3C[C@H]2[C@@H]1CO
AC50 (Vero): 23.1 µM (active)

C=CCOc1ccc(CN2CCC(CCOc3ccccc3)(C(=O)N(C)CC)CC2)cc1Cl
AC50 [28]: > 30 µM (inactive)

C[C@H](CO)N1C[C@H](C)[C@H](CN(C)S(=O)(=O)c2ccc(F)cc2)Oc2ccc(NS(C)(=O)=O)cc2C1=O
AC50 [29]: 1.19 µM (active)

C[C@H](CO)N1C[C@H](C)[C@H](CN(C)C(=O)Nc2ccccc2)OCCCC[C@H](C)Oc2ccc(NC(=O)NC3CCCCC3)cc2C1=O
AC50 [30]: 12 µM (active)

CC1=C(N)C(=O)c2ccccc2C1=O
AC50 [31]: > 70 µM (inactive) | AC50 [32]: 3.74 µM (active)

COc1c(O[C@@H]2O[C@H](CO)[C@@H](O)[C@H](O)[C@H]2O)cc2c(c1OC)-c1ccc(SC)c(=O)cc1[C@@H](NC(C)=O)CC2 [THIOCOLCHICOSIDE]
AC50 [33]: 50 µM (active)
